These results are taken from patent publication US20140314740A1, “COMPOSITIONS AND METHODS FOR THE PREVENTION OR TREATMENT OF DIABETIC COMPLICATIONS” (The Johns Hopkins University, priority 2011, published 2014).

Entries after “also recorded” stand apart in the source; their conditions may differ.

One assay concerns superoxide radicals. The assay can be described thus: Superoxide radical assay (hydroethidine-induced fluorescence) in retinal homogenates of diabetic mice. Format: in vivo, C57BL/6 mice. The settings on record: 1 month of diabetes; 1,9-dideoxyforskolin 0.1 mg/kg daily. How it is done: Superoxide radicals were measured in retinal homogenates by measuring dihydroethidine-induced fluorescence (Georgiou et al., 2008; Chen et al., 2009). Briefly, 200 μl reaction mixtures of freshly prepared retinal homogenates (20 μg protein) containing 2.5 μM dihydroethidium and 0.05 μg/μl salmon testes DNA were placed in 96-well microplates at 37° C. for 30 min. The fluorescence was measured at an excitation of 480 nm and an emission of 610 nm. Each sample was assayed in triplicate.

Assay [1] has as its target T1, GLUT1 (Mus musculus, UniProt P17809).
T1 sequence (P17809 1-492): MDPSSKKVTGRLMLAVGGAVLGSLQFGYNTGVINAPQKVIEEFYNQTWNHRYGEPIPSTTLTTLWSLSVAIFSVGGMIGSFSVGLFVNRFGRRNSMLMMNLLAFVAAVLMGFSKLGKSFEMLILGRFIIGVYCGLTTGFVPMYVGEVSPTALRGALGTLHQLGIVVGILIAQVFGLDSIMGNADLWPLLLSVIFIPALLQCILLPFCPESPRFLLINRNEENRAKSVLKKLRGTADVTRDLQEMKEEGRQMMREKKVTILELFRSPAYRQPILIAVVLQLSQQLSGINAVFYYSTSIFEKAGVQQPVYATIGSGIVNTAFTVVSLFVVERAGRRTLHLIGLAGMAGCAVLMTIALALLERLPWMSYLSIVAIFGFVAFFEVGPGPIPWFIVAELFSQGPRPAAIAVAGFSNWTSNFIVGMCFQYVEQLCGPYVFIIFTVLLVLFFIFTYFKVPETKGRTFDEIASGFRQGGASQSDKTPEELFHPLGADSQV
The assay can be described thus: Glucose measurements in retina, brain and red blood cells (RBC) of streptozotocin-diabetic mice. It counts as in vivo, C57BL/6 mice. The settings on record: for retinal glucose levels: diabetic mice; for retinal glucose (summary statement): systemic treatment of diabetic mice, dose not given.

In assay [2] the target is T2, GLUT1 (Homo sapiens, UniProt P11166).
T2 sequence (P11166 1-492): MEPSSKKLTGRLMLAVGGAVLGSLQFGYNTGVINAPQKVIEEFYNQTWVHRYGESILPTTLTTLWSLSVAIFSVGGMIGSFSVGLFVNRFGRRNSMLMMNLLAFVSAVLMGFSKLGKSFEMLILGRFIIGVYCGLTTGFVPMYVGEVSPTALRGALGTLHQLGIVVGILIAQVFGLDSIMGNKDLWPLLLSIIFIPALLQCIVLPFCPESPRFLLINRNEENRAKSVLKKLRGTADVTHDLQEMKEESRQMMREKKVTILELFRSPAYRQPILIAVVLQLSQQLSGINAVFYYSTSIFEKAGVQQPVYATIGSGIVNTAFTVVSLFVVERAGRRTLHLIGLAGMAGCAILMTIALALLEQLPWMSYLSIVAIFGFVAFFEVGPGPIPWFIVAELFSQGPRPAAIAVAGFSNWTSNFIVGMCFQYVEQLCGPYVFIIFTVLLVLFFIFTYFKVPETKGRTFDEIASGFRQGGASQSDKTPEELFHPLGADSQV
The settings on record: literature statement; cited from earlier work.

In assay [3] the target is T2, GLUT1. The conditions noted are these: literature statement; cited from earlier work. This is another data set of the same source.
For the next assay, the system named is adenylate cyclase. The conditions noted are these: literature statement; cited from earlier work.
Another assay has as its system tyrosine kinases. The conditions noted are these: literature statement; by blocking the ATP binding site; cited from earlier work.
[4] abbreviates: mice diabetic 2 months, 1,9-dideoxyforskolin 1 mg/kg daily IP, 5 hr after last dose, vs untreated diabetics.

For the compound `C=C[C@@]1(C)CC(=O)[C@@H]2[C@@]3(C)CCCC(C)(C)[C@@H]3[C@H](O)[C@H](OC(C)=O)[C@@]2(C)O1` [1,9-dideoxyforskolin], the “increase of superoxide radicals (hydroethidine-induced fluorescence) in retinal homogenates” value with superoxide radicals is on record as “significantly blocked”. On GLUT1 [1] (1,9-dideoxyforskolin 0.1 mg/kg/day IP, 2 or 4 weeks, vs untreated diabetics), the retinal glucose levels result was “significantly reduced retinal glucose levels; also recorded: significant reduction in retinal glucose level”. At GLUT1 [1] (setting [4]), the “glucose levels in RBCs” value is “significant reduction; also recorded: decreased glucose levels”, the “glucose levels in brain” value is “not in brain; also recorded: did not effect glucose levels” and the “glucose levels in retina” value is listed as “significant reduction; also recorded: decreased glucose levels”. Also, the “retinal glucose (summary statement)” value on GLUT1 [1] is “equivalent effect to that of forskolin”. Also, the “binding to GLUT1” value at GLUT1 [2] was “binds GLUT1”. Besides, the GLUT1 glucose transport result at GLUT1 [3] is “blocks GLUT1-mediated glucose transport”. For the same compound, the adenylate cyclase stimulation entry in the assay on adenylate cyclase was “lacks adenylate cyclase-stimulating activity”.
On to `O=c1c(-c2ccc(O)cc2)coc2cc(O)cc(O)c12` [genistein], for which the retinal glucose levels result on GLUT1 [1] (genistein 50 mg/kg/day IP, 4 weeks, vs untreated diabetics) is “significantly reduced retinal glucose levels; also recorded: significant reduction in retinal glucose level”. On GLUT1 [1], the “retinal glucose (summary statement)” value was “significantly reduced retinal glucose to the same levels seen in non-diabetics”. Further, the tyrosine kinase inhibition result in the assay with tyrosine kinases is “inhibits tyrosine kinases”. At GLUT1 [2], the “binding to GLUT1” value was “binds to the ATP binding site of GLUT1”. Moreover, the GLUT1 glucose transport result on GLUT1 [3] is “suppresses glucose transport”.
Take `O=c1c(O)c(-c2cc(O)c(O)c(O)c2)oc2cc(O)cc(O)c12` [myricetin]: at GLUT1 [2], the “binding to GLUT1” value was “binds to the ATP binding site of GLUT1”.
